From publication PMC10041525, “New Dual Inhibitors of Bacterial Topoisomerases with Broad-Spectrum Antibacterial Activity and In Vivo Efficacy against Vancomycin-Intermediate Staphylococcus aureus” (Journal of Medicinal Chemistry, 2023)
Values after ≈ are worked out from the molar mass of the structure shown. Values joined by “and” are separate entries in the source; they are usually repeats but may differ in a detail not shown here. Equal entries are not always repeated. Where two headings read alike, the source gives them in different places.

What was measured:
[1] = physchem; format: physicochemical; settings: for solubility thermodynamic at 24 h / solubility thermodynamic at 48 h: phosphate-buffered saline (PBS)
Experimental: For the PBS, 2.38 g of disodium hydrogen phosphate dodecahydrate, 0.19 g of potassium dihydrogen phosphate, and 8.0 g of sodium chloride were added to distilled water (900 mL), and the solution was mixed overnight. […] Samples were prepared by weighing the exact mass of solid compounds (about 1 mg), and then, the appropriate volume of PBS was added to reach the final concentration of ∼1 mg/mL. […] The supernatant was diluted 3× with a 1:1 mixture of 0.1% TFA in water and acetonitrile and analyzed by HPLC. For the 7-point calibration curves, concentrated stock solutions of the compounds were prepared at concentrations of 10 and 0.5 mM in DMSO, which were diluted with a 1:1 mixture of 0.1% TFA in water and acetonitrile to the desired final concentrations and analyzed by HPLC. Results are given in μM as an average value of two independent experiments. For details on calibration curves, concentrations, analytical method, and HPLC method, see the Supporting Information.
Thermodynamic solubility assay
To determine thermodynamic solubility of compounds in PBS, calibration curves for the assayed compounds were prepared using seven concentrations. First, DMSO stock solutions of compounds at 10 mM and 0.5 mM concentration were prepared and then diluted (0.1% TFA in […]
Quality control (QC) samples were diluted from stock solutions with a 1:1 mixture of 0.1% TFA in water and acetonitrile to final concentrations of 60 µM, 20 µM, and 2 µM (6 µM, 2 µM, and 0.2 µM for 7f or 0.6 µM, 0.2 µM, and 0.02 µM for 7g).
Analytical reversed-phase UHPLC analyses were performed on Thermo Scientific Dionex UltiMate 3000 modular system (Thermo Fisher Scientific Inc., MA, USA). Waters Acquity UPLC® HSS C18 SB column (2.1 × 50 mm, 1.8 μm; Waters, Milford, MA, USA) was used at T […]
Mobile phase consisted of 0.1% trifluoroacetic acid in ultrapure water (solvent A) and acetonitrile […]
The obtained data was processed in Chromeleon CDS software (Thermo Fisher Scientific Inc., […]
Analytical method was tested for accuracy, precision and linear rang. Accuracy was […]
(or 2 or 0.2) µM and 60 (or 6 or 0.6) µM) to their true values and expressed in (%). Values were […]
Method repeatability was determined by calculating the RSD from the separately prepared and analysed quality control samples (n = 3). […] Linearity of the […]
method (1 (or 0.1 or 0.01) µM to 100 (or 10 or 1) µM) was evaluated from the 7-point calibration […]
Solubility was determined in two independent experiments and results were calculated in […]

[2] = test system: P. aeruginosa ATCC 27853; assay: IHMA QC MIC; format: cell-based
[3] = test system: 3 sensitive and 7 MDR A. baumannii clinical isolates; assay: MIC, Hungarian clinical isolates and controls (384-well); format: cell-based; settings: n=10
[4] = pH 7.4, PBS pH 7.4, read-out: thermodynamic solubility, Experiment 1
[5] = pH 7.4, PBS pH 7.4, read-out: thermodynamic solubility, Experiment 2
[6] = pH 7.4, thermodynamic solubility (pH = 7.4), PBS, 37 °C, 24 h, mean of two
[7] = Pseudomonas aeruginosa, ATCC27853, QC strain P. aeruginosa ATCC 27853, test date 2021-11-11, read-out: MIC
[8] = Pseudomonas aeruginosa, ATCC27853, QC strain P. aeruginosa ATCC 27853, test date 2021-11-26, read-out: MIC
[9] = Pseudomonas aeruginosa, ATCC27853, read-out: MIC (QC, repeated tests)

Molecule | thermodynamic solubility (pH = 7.4) ([1]; PBS, 37 °C, 24 h, mean of two) | solubility thermodynamic at 24 h [1, 4] [µM] | solubility thermodynamic at 24 h [1, 5] [µM] | solubility thermodynamic at 24 h [1, 6] [µM] | also measured
Cc1[nH]c(C(=O)Nc2nc3c(N4CCC(O)CC4)cc(C(=O)O)cc3s2)c(Cl)c1Cl [7p, 2-(3,4-Dichloro-5-methyl-1H-pyrrole-2-carboxamido)-4-(4-hydroxypiperidin-1-yl)benzo[d]thiazole-6-carboxylic Acid] | 183.7 µM and 183.67 µM | 279 (≈ 131 µg/mL) | 88.3 (≈ 41.4 µg/mL) | 184 (≈ 86.4 µg/mL) | 
C[C@@H](O)[C@H]1C(=O)N2C(C(=O)O)=C(SCCNC=N)C[C@H]12 [Imipenem, imipenem] |  |  |  |  | MIC (QC, repeated tests) [2]: 1 mg/L (≈ 3.34 µM); MIC [2, 7]: 2 mg/L (≈ 6.68 µM); MIC [2, 8]: 2 mg/L (≈ 6.68 µM); MIC [2, 9]: 2 mg/L (≈ 6.68 µM); Cumulative % at MIC ([3]; MIC 0.5 µg/mL): 20%; Cumulative % at MIC ([3]; MIC 1 µg/mL): 30%; Cumulative % at MIC ([3]; MIC 64 µg/mL): 60%; Cumulative % at MIC ([3]; MIC 128 µg/mL): 80%; Cumulative % at MIC ([3]; MIC 256 µg/mL): 100%
CC1(C)S[C@@H]2[C@H](NC(=O)[C@H](N)c3ccccc3)C(=O)N2[C@H]1C(=O)O [Ampicillin, ampicillin] |  |  |  |  | MIC [2, 7]: > 32 mg/L; MIC [2, 8]: > 32 mg/L
COC[C@@H]1CCCN1c1cc(C(=O)O)cc2sc(NC(=O)c3[nH]c(C)c(Cl)c3Cl)nc12 [7o, (S)-2-(3,4-Dichloro-5-methyl-1H-pyrrole-2-carboxamido)-4-(2-(methoxymethyl)pyrrolidin-1-yl)benzo[d]thiazole-6-carboxylic Acid] | 10.98 µM | 10.6 (≈ 5.12 µg/mL) | 11.4 (≈ 5.5 µg/mL) | 11 (≈ 5.32 µg/mL) | 
Cc1[nH]c(C(=O)Nc2nc3c(N4CCOCC4)cc(C(=O)O)cc3s2)cc1Cl [16a, 2-(4-Chloro-5-methyl-1H-pyrrole-2-carboxamido)-4-morpholinobenzo[d]thiazole-6-carboxylic Acid] | 137.58 µM | 134 (≈ 56.3 µg/mL) | 141 (≈ 59.6 µg/mL) | 138 (≈ 57.9 µg/mL) | solubility thermodynamic at 48 h [1, 6]: 137 µM (≈ 57.7 µg/mL)
Cc1[nH]c(C(=O)Nc2nc3c(N4CCOCC4)cc(C(=O)O)cc3s2)cc1F [16b, 2-(4-Fluoro-5-methyl-1H-pyrrole-2-carboxamido)-4-morpholinobenzo[d]thiazole-6-carboxylic Acid] | 131.4 µM and 131.42 µM | 140 (≈ 56.7 µg/mL) | 123 (≈ 49.6 µg/mL) | 131 (≈ 53 µg/mL) | 
COc1c(N2C[C@@H]3CCCN[C@@H]3C2)c(F)cc2c(=O)c(C(=O)O)cn(C3CC3)c12 [Moxifloxacin, moxifloxacin] |  |  |  |  | MIC [2, 9]: 2 mg/L (≈ 4.98 µM); Cumulative % at MIC ([3]; MIC 0.0625 µg/mL): 20%; Cumulative % at MIC ([3]; MIC 0.5 µg/mL): 30%; Cumulative % at MIC ([3]; MIC 32 µg/mL): 70%; Cumulative % at MIC ([3]; MIC 64 µg/mL): 100%
COCC1CCCN1c1cc(C(=O)O)cc2sc(NC(=O)c3[nH]c(C)c(Cl)c3Cl)nc12 (stereo not shown) [7n, 2-(3,4-Dichloro-5-methyl-1H-pyrrole-2-carboxamido)-4-(2-(methoxymethyl)pyrrolidin-1-yl)benzo[d]thiazole-6-carboxylic Acid] | 11.18 µM | 11 (≈ 5.31 µg/mL) | 11.4 (≈ 5.49 µg/mL) | 11.2 (≈ 5.41 µg/mL) | 
Cc1[nH]c(C(=O)Nc2nc3c(N4CC(C)OC(C)C4)cc(C(=O)O)cc3s2)c(Cl)c1Cl (stereo not shown) [7f, 2-(3,4-Dichloro-5-methyl-1H-pyrrole-2-carboxamido)-4-(2,6-dimethylmorpholino)benzo[d]thiazole-6-carboxylic Acid] |  | 0.95 (≈ 0.459 µg/mL) | 0.89 (≈ 0.43 µg/mL) | 0.92 (≈ 0.445 µg/mL) | 
CN(C)c1cc(NC(=O)CNC(C)(C)C)c(O)c2c1C[C@H]1C[C@H]3[C@H](N(C)C)C(O)=C(C(N)=O)C(=O)[C@@]3(O)C(O)=C1C2=O [Tigecycline, tigecycline] |  |  |  |  | MIC (QC, repeated tests) [2]: 4 mg/L (≈ 6.83 µM); MIC [2, 9]: 8 mg/L (≈ 13.7 µM)
Cc1[nH]c(C(=O)Nc2nc3c(N4CCOC(C)C4)cc(C(=O)O)cc3s2)c(Cl)c1Cl (stereo not shown) [7e, 2-(3,4-Dichloro-5-methyl-1H-pyrrole-2-carboxamido)-4-(2-methylmorpholino)benzo[d]thiazole-6-carboxylic Acid] | 80.35 µM | 71.9 (≈ 33.7 µg/mL) | 88.8 (≈ 41.7 µg/mL) | 80.4 (≈ 37.7 µg/mL) | solubility thermodynamic at 48 h [1, 6]: 80 µM (≈ 37.5 µg/mL)
CO/N=C(\C(=O)N[C@@H]1C(=O)N2C(C(=O)[O-])=C(C[N+]3(C)CCCC3)CS[C@H]12)c1csc(N)n1 [Cefepime, cefepime] |  |  |  |  | Cumulative % at MIC ([3]; MIC […] µg/mL): 20%
piperacillin/tazobactam [Piperacillin Tazobactam] |  |  |  |  | MIC (QC, repeated tests) [2]: 4 mg/L and 8 mg/L
C[C@@H](O)[C@H]1C(=O)N2C(C(=O)O)=C(S[C@@H]3CN[C@H](C(=O)N(C)C)C3)[C@H](C)[C@H]12 [Meropenem, meropenem] |  |  |  |  | MIC (QC, repeated tests) [2]: 1 mg/L (≈ 2.61 µM); MIC [2, 9]: 0.5 mg/L (≈ 1.3 µM); Cumulative % at MIC ([3]; MIC 1 µg/mL): 30%; Cumulative % at MIC ([3]; MIC 64 µg/mL): 100%; Cumulative % at MIC ([3]; MIC […]): 10%
Cc1[nH]c(C(=O)Nc2nc3c(N4CCOC[C@H]4C)cc(C(=O)O)cc3s2)c(Cl)c1Cl [7c, (R)-2-(3,4-Dichloro-5-methyl-1H-pyrrole-2-carboxamido)-4-(3-methylmorpholino)benzo[d]thiazole-6-carboxylic Acid] | 10.14 µM | 8.67 (≈ 4.07 µg/mL) | 11.6 (≈ 5.44 µg/mL) | 10.1 (≈ 4.74 µg/mL) | 
C[C@H]1COc2c(N3CCN(C)CC3)c(F)cc3c(=O)c(C(=O)O)cn1c23.C[C@H]1COc2c(N3CCN(C)CC3)c(F)cc3c(=O)c(C(=O)O)cn1c23.O [Levofloxacin, levofloxacin] |  |  |  |  | MIC ([2]; Pseudomonas aeruginosa, ATCC27853, QC strain P. aeruginosa ATCC 27853, test date 2021-11-11): 2 mg/L; MIC ([2]; Pseudomonas aeruginosa, ATCC27853, QC strain P. aeruginosa ATCC 27853, test date 2021-11-26): 1 mg/L; MIC ([2]; QC strain P. aeruginosa ATCC 27853, test date 2021-11-11): 1 mg/L; Cumulative % at MIC ([3]; MIC 0.0625 µg/mL): 30%
Cc1[nH]c(C(=O)Nc2nc3c(N4CCOC[C@@H]4C)cc(C(=O)O)cc3s2)c(Cl)c1Cl [7d, (S)-2-(3,4-Dichloro-5-methyl-1H-pyrrole-2-carboxamido)-4-(3-methylmorpholino)benzo[d]thiazole-6-carboxylic Acid] | 5.84 µM | 5.6 (≈ 2.63 µg/mL) | 6.07 (≈ 2.85 µg/mL) | 5.8 (≈ 2.72 µg/mL) | 
Cc1[nH]c(C(=O)Nc2nc3c(N4CCOCC4C)cc(C(=O)O)cc3s2)c(Cl)c1Cl (stereo not shown) [7b, 2-(3,4-Dichloro-5-methyl-1H-pyrrole-2-carboxamido)-4-(3-methylmorpholino)benzo[d]thiazole-6-carboxylic Acid] |  | 59.6 (≈ 28 µg/mL) | 76.6 (≈ 36 µg/mL) | 68.1 (≈ 32 µg/mL) | solubility thermodynamic at 48 h [1, 6]: 68 µM (≈ 31.9 µg/mL)
Cc1[nH]c(C(=O)Nc2nc3c(N4CCOC(C(F)(F)F)C4)cc(C(=O)O)cc3s2)c(Cl)c1Cl (stereo not shown) [7i, 2-(3,4-Dichloro-5-methyl-1H-pyrrole-2-carboxamido)-4-(2-(trifluoromethyl)morpholino)benzo[d]thiazole-6-carboxylic Acid] |  | 10.7 (≈ 5.57 µg/mL) |  | 10.7 (≈ 5.6 µg/mL) | solubility thermodynamic at 48 h [1, 6]: 11 µM (≈ 5.76 µg/mL)
Cc1[nH]c(C(=O)Nc2nc3c(N4C[C@H]5CC[C@@H](C4)O5)cc(C(=O)O)cc3s2)c(Cl)c1Cl [7g, 4-((1R,5S)-8-Oxa-3-azabicyclo[3.2.1]octan-3-yl)-2-(3,4-dichloro-5-methyl-1H-pyrrole-2-carboxamido)benzo[d]thiazole-6-carboxylic Acid] |  | 0.33 (≈ 0.159 µg/mL) | 0.19 (≈ 0.0915 µg/mL) |  | solubility thermodynamic at 48 h [1, 6]: 0.26 µM (≈ 0.125 µg/mL)
